Results taken from patent US20240101570A1 (AMGEN INC., priority 2020, published 2024).

Columns and labels:
HCT116 WT cells = assay: HCT116 WT cell proliferation / viability (CellTiter-Glo, 6 days); format: cell-based; conditions: Homo sapiens, HCT-116, 144 h, HCT116 WT cells, 6 days, CellTiter-Glo; read-out: HCT-116 WT IC50
Summary of the method: (§1)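 Viability read by CellTiter-Glo after 6-day compound exposure of MTAP-null and wild-type HCT116 cells grown in RPMI 1640 with 10% FBS. Dosing used 1:3 steps from 1 or 10 μM (8-9 points) or 1:2 steps from 10 or 50 μM (22 points); IC50 taken where fitted curve crosses 50% of control.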

HCT116 MTAP null cells = assay: HCT116 MTAP null cell proliferation / viability (CellTiter-Glo, 6 days); format: cell-based; conditions: HCT116-MTAP null, 144 h, HCT116 MTAP null cells, 6 days, CellTiter-Glo; read-out: HCT-116 MTAP null IC50
Summary of the method: as §1

IC50 (HCT116 WT cells) [nM] | IC50 (HCT116 MTAP null cells) [nM] | Structure (SMILES)
9700 | 130 | CC1OCc2c1c(N)nc1ccc(C(=O)N(Cc3ccc(C(F)(F)F)cn3)C3CCOC3)cc21 (stereo not shown) [Example 899, 4-amino-3-methyl-N-(tetrahydrofuran-3-yl)-N-((5-(trifluoromethyl)pyridin-2-yl)methyl)-1,3-dihydrofuro[3,4-c]quinoline-8-carboxamide]
> 10000 | 290 | CC1OCc2c1c(N)nc1ccc(C(=O)N(Cc3ccc(C(F)(F)F)cn3)[C@H]3[C@@H]4COC[C@@H]43)cc21 (stereo partly drawn) [Example 900, 4-amino-N-((1R,5S,6r)-3-oxabicyclo[3.1.0]hexan-6-yl)-3-methyl-N-((5-(trifluoromethyl)pyridin-2-yl)methyl)-1,3-dihydrofuro[3,4-c]quinoline-8-carboxamide]
430 | 42 | CC1OCc2c1c(N)nc1ccc(C(=O)N(Cc3ccc(C(F)(F)F)cn3)C3CCOCC3C)cc21 (stereo not shown) [Example 901, 4-amino-3-methyl-N-(3-methyltetrahydro-2H-pyran-4-yl)-N-((5-(trifluoromethyl)pyridin-2-yl)methyl)-1,3-dihydrofuro[3,4-c]quinoline-8-carboxamide]
330 | 34 | CO[C@@H]1COCC[C@H]1N(Cc1ccc(C(F)(F)F)cn1)C(=O)c1ccc2nc(N)c3c(c2c1)COC3C (stereo partly drawn) [Example 902, 4-amino-N-((3S,4R)-3-methoxytetrahydro-2H-pyran-4-yl)-3-methyl-N-((5-(trifluoromethyl)pyridin-2-yl)methyl)-1,3-dihydrofuro[3,4-c]quinoline-8-carboxamide]
4000 | 58 | CO[C@H]1COCC[C@@H]1N(Cc1ccc(C(F)(F)F)cn1)C(=O)c1ccc2nc(N)c3c(c2c1)COC3C (stereo partly drawn) [Example 903, 4-amino-N-((3R,4S)-3-methoxytetrahydro-2H-pyran-4-yl)-3-methyl-N-((5-(trifluoromethyl)pyridin-2-yl)methyl)-1,3-dihydrofuro[3,4-c]quinoline-8-carboxamide]
1600 | 31 | CC1OCc2c1c(N)nc1ccc(C(=O)N(Cc3ccc(C(F)(F)F)cn3)C3CC3C3CC3)cc21 (stereo not shown) [Example 904, N-([1,1′-bi(cyclopropan)]-2-yl)-4-amino-3-methyl-N-((5-(trifluoromethyl)pyridin-2-yl)methyl)-1,3-dihydrofuro[3,4-c]quinoline-8-carboxamide]
4600 | 80 | CC1OCc2c1c(N)nc1ccc(C(=O)N(Cc3ccc(C(F)(F)F)cn3)C3CC34CCCCC4)cc21 (stereo not shown) [Example 905, 4-amino-3-methyl-N-(spiro[2.5]octan-1-yl)-N-((5-(trifluoromethyl)pyridin-2-yl)methyl)-1,3-dihydrofuro[3,4-c]quinoline-8-carboxamide]
> 1000 | 40 | CCOC1CC1N(Cc1ccc(C(F)(F)F)cn1)C(=O)c1ccc2nc(N)c3c(c2c1)COC3C (stereo not shown) [Example 907, 4-amino-N-(2-ethoxycyclopropyl)-3-methyl-N-((5-(trifluoromethyl)pyridin-2-yl)methyl)-1,3-dihydrofuro[3,4-c]quinoline-8-carboxamide]
6200 | 123 | CC1OCc2c1c(N)nc1ccc(C(=O)N(Cc3ccc(C(F)(F)F)cn3)C3CC3(C)C)cc21 (stereo not shown) [Example 908, 4-amino-N-(2,2-dimethylcyclopropyl)-3-methyl-N-((5-(trifluoromethyl)pyridin-2-yl)methyl)-1,3-dihydrofuro[3,4-c]quinoline-8-carboxamide]
8000 | 215 | CC1OCc2c1c(N)nc1ccc(C(=O)N(Cc3ccc(C(F)(F)F)cn3)C3CC34CCCC4)cc21 (stereo not shown) [Example 909, 4-amino-3-methyl-N-(spiro[2.4]heptan-1-yl)-N-((5-(trifluoromethyl)pyridin-2-yl)methyl)-1,3-dihydrofuro[3,4-c]quinoline-8-carboxamide]
173 | 21 | CC1OCc2c1c(N)nc1ccc(C(=O)N(Cc3ccc(C(F)(F)F)cn3)[C@H](C)c3ncccn3)cc21 (stereo partly drawn) [Example 911, 4-amino-3-methyl-N-((R)-1-(pyrimidin-2-yl)ethyl)-N-((5-(trifluoromethyl)pyridin-2-yl)methyl)-1,3-dihydrofuro[3,4-c]quinoline-8-carboxamide]
1700 | 49 | CC1OCc2c1c(N)nc1ccc(C(=O)N(Cc3ccc(C#N)cn3)CC3(C#N)CC3)cc21 (stereo not shown) [Example 913, 4-amino-N-((1-cyanocyclopropyl)methyl)-N-((5-cyanopyridin-2-yl)methyl)-3-methyl-1,3-dihydrofuro[3,4-c]quinoline-8-carboxamide]
4200 | 29 | CC1OCc2c1c(N)nc1ccc(C(=O)N(CC3=CCCOC3)Cc3ccc(C(F)(F)F)cn3)cc21 (stereo not shown) [Example 915, 4-amino-N-((5,6-dihydro-2H-pyran-3-yl)methyl)-3-methyl-N-((5-(trifluoromethyl)pyridin-2-yl)methyl)-1,3-dihydrofuro[3,4-c]quinoline-8-carboxamide]
200 | 6 | CC1OCc2c1c(N)nc1ccc(C(=O)N(Cc3ccc(C(F)(F)F)cn3)Cc3ccnc4[nH]ccc34)cc21 (stereo not shown) [Example 916, N-((1H-pyrrolo[2,3-b]pyridin-4-yl)methyl)-4-amino-3-methyl-N-((5-(trifluoromethyl)pyridin-2-yl)methyl)-1,3-dihydrofuro[3,4-c]quinoline-8-carboxamide]
1560 | 17 | CC1OCc2c1c(N)nc1ccc(C(=O)N(Cc3ccc(C(F)(F)F)cn3)CC3(C#N)CC3)cc21 (stereo not shown) [Example 917, 4-amino-N-((1-cyanocyclopropyl)methyl)-3-methyl-N-((5-(trifluoromethyl)pyridin-2-yl)methyl)-1,3-dihydrofuro[3,4-c]quinoline-8-carboxamide]
> 1000 | 54 | CC1OCc2c1c(N)nc1ccc(C(=O)N(Cc3ccc(C(F)(F)F)cn3)Cc3cnc(N)s3)cc21 (stereo not shown) [Example 918, 4-amino-N-((2-aminothiazol-5-yl)methyl)-3-methyl-N-((5-(trifluoromethyl)pyridin-2-yl)methyl)-1,3-dihydrofuro[3,4-c]quinoline-8-carboxamide]
> 1000 | 200 | CC1OCc2c1c(N)nc1ccc(C(=O)N(C)Cc3ccc(C(F)(F)F)cn3)cc21 (stereo not shown) [Example 929, 4-amino-N,3-dimethyl-N-((5-(trifluoromethyl)pyridin-2-yl)methyl)-1,3-dihydrofuro[3,4-c]quinoline-8-carboxamide]
> 10000 | 61 | CCN(Cc1ccc(C(F)(F)F)cn1)C(=O)c1ccc2nc(N)c3c(c2c1)COC3C (stereo not shown) [Example 930, 4-amino-N-ethyl-3-methyl-N-((5-(trifluoromethyl)pyridin-2-yl)methyl)-1,3-dihydrofuro[3,4-c]quinoline-8-carboxamide]
9600 | 72 | CC1OCc2c1c(N)nc1ccc(C(=O)N(Cc3ccc(C(F)(F)F)cn3)C(C)C)cc21 (stereo not shown) [Example 931, 4-amino-N-isopropyl-3-methyl-N-((5-(trifluoromethyl)pyridin-2-yl)methyl)-1,3-dihydrofuro[3,4-c]quinoline-8-carboxamide]
1700 | 860 | CN(Cc1ccc(C(F)(F)F)cn1)C(=O)c1ccc2nc(N)c3c(c2c1)COC3(C)C [Example 932, 4-amino-N,3,3-trimethyl-N-((5-(trifluoromethyl)pyridin-2-yl)methyl)-1,3-dihydrofuro[3,4-c]quinoline-8-carboxamide]
